Molecules are shown by their SMILES. Structures can show the parent of a compound that is named as a salt. Where only a bound is given, the exact number is not on record here.

In general, IC50 refers to the concentration that inhibits the measured activity by half. A low value points to higher potency.

In this experiment the target is T1, Human thrombin (Homo sapiens, UniProt P00734).
T1 construct: purchased Haematologic Technologies Inc
The experiment can be described thus: Thrombin protease inhibition assay (chromogenic substrate S-2238). The experiment is classed as biochemical. The note with it: 3 nM human thrombin, 125 μM S-2238, 10 min pre-incubation, RT. The procedure:
The thrombin activity reported herein (e.g., Table A) was obtained as follows. Human thrombin was obtained from Haematologic Technologies Inc. The chromogenic substrate S-2238 was obtained from DiaPharma. Thrombin was assayed in buffer containing 0.05 M Tris (pH 7.4), 0.015 M NaCl and 0.01% PEG-8000. The final concentration of enzyme used was 3 nM thrombin. The final concentration of substrate used was 125 μM S-2238 for thrombin. All assays were performed in 96-well microtiter plates at room temperature (RT). The enzyme and inhibitor were pre-incubated for 10 minutes then substrate was added and read at 405 nm in a SpectraMax Plus Spectrophotometer (Molecular Devices). Inhibitor IC50 values were determined by adding test compound as ten point, three-fold serial dilutions in buffer solution, as known in the art. The plate was read at 10 minutes after substrate addition. The IC50 was calculated by plotting the percent (%) inhibition against compound concentration and fitting the data to a constrained four parameter sigmoidal curve, as known in the art.
In turn, `COc1ccccc1C(=O)n1nc(C2CCN(C(N)=O)CC2)nc1NCc1ccc(Cl)s1` [Entry 31, 4-(5-[(5-chlorothiophen-2-yl)methyl]amino-1-(2-methoxybenzoyl)-1H-1,2,4-triazol-3-yl)piperidine-1-carboxamide] had an IC50 of no more than 100 nM.
The same measure for `O=C(c1cccc2c1OCCO2)n1nc(C2CCOCC2)nc1NCc1ccc(Cl)s1` [Entry 32, N-[(5-chlorothiophen-2-yl)methyl]-1-(2,3-dihydro-1,4-benzodioxine-5-carbonyl)-3-(oxan-4-yl)-1H-1,2,4-triazol-5-amine]: no more than 100 nM; for `O=C(c1cccc2c1OCCO2)n1nc(C2CCCO2)nc1NCc1ccc(Cl)s1` (stereo not shown) [Entry 33, N-[(5-chlorothiophen-2-yl)methyl]-1-(2,3-dihydro-1,4-benzodioxine-5-carbonyl)-3-(oxolan-2-yl)-1H-1,2,4-triazol-5-amine]: no more than 100 nM; for `O=C(c1cccc2c1OCCO2)n1nc(C2CCOC2)nc1NCc1ccc(Cl)s1` (stereo not shown) [Entry 34, N-[(5-chlorothiophen-2-yl)methyl]-1-(2,3-dihydro-1,4-benzodioxine-5-carbonyl)-3-(oxolan-3-yl)-1H-1,2,4-triazol-5-amine]: no more than 100 nM.
The same measure for `O=C(c1cccc2c1OCCO2)n1nc(C2CCNCC2)nc1NCc1ccc(Cl)s1` [Entry 35, N-[(5-chlorothiophen-2-yl)methyl]-1-(2,3-dihydro-1,4-benzodioxine-5-carbonyl)-3-(piperidin-4-yl)-1H-1,2,4-triazol-5-amine hydrochloride]: no more than 100 nM; for `COc1ccc(C(=O)n2nc(C3CCOCC3)nc2NCc2ccc(Cl)s2)c(OC)c1` [Entry 36, N-[(5-chlorothiophen-2-yl)methyl]-1-(2,4-dimethoxybenzoyl)-3-(oxan-4-yl)-1H-1,2,4-triazol-5-amine]: no more than 100 nM; for `COc1ccc(C(=O)n2nc(C3CCCO3)nc2NCc2ccc(Cl)s2)c(OC)c1` (stereo not shown) [Entry 37, N-[(5-chlorothiophen-2-yl)methyl]-1-(2,4-dimethoxybenzoyl)-3-(oxolan-2-yl)-1H-1,2,4-triazol-5-amine]: no more than 100 nM.
As for `COc1ccc(C(=O)n2nc(C3CCOC3)nc2NCc2ccc(Cl)s2)c(OC)c1` (stereo not shown) [Entry 38, N-[(5-chlorothiophen-2-yl)methyl]-1-(2,4-dimethoxybenzoyl)-3-(oxolan-3-yl)-1H-1,2,4-triazol-5-amine], the figure is no more than 100 nM; as for `COc1ccccc1C(=O)n1nc(C2CCCCC2OC)nc1NCc1ccc(Cl)s1` (stereo not shown) [Entry 39, N-[(5-chlorothiophen-2-yl)methyl]-1-(2-methoxybenzoyl)-3-(2-methoxycyclohexyl)-1H-1,2,4-triazol-5-amine], no more than 100 nM; as for `COc1ccccc1C(=O)n1nc(C2CCOCC2)nc1NCc1ccc(Cl)s1` [Entry 40, N-[(5-chlorothiophen-2-yl)methyl]-1-(2-methoxybenzoyl)-3-(oxan-4-yl)-1H-1,2,4-triazol-5-amine], no more than 100 nM.
Take `COc1ccccc1C(=O)n1nc(C2CCCO2)nc1NCc1ccc(Cl)s1` (stereo not shown) [Entry 41, N-[(5-chlorothiophen-2-yl)methyl]-1-(2-methoxybenzoyl)-3-(oxolan-2-yl)-1H-1,2,4-triazol-5-amine]: the half-maximal inhibitory concentration (IC50) was no more than 100 nM.
As for `COc1ccccc1C(=O)n1nc(C2CCOC2)nc1NCc1ccc(Cl)s1` (stereo not shown) [Entry 42, N-[(5-chlorothiophen-2-yl)methyl]-1-(2-methoxybenzoyl)-3-(oxolan-3-yl)-1H-1,2,4-triazol-5-amine], the half-inhibitory concentration (IC50) was no more than 100 nM.
On to `COc1ccccc1C(=O)n1nc(C2CCNCC2)nc1NCc1ccc(Cl)s1` [Entry 43, N-[(5-chlorothiophen-2-yl)methyl]-1-(2-methoxybenzoyl)-3-(piperidin-4-yl)-1H-1,2,4-triazol-5-amine], for which the IC50 was no more than 100 nM.
As for `COc1ccccc1C(=O)n1nc(C2CCN(C(=O)N3CCCCC3)CC2)nc1NCc1ccc(Cl)s1` [Entry 44, N-[(5-chlorothiophen-2-yl)methyl]-1-(2-methoxybenzoyl)-3-[1-(piperidine-1-carbonyl)piperidin-4-yl]-1H-1,2,4-triazol-5-amine], the IC50 is no more than 100 nM.
The same measure for `COc1ccccc1C(=O)n1nc(C2CN(S(=O)(=O)N3CCCCC3)C2)nc1NCc1ccc(Cl)s1` [Entry 45, N-[(5-chlorothiophen-2-yl)methyl]-1-(2-methoxybenzoyl)-3-[1-(piperidine-1-sulfonyl)azetidin-3-yl]-1H-1,2,4-triazol-5-amine]: no more than 100 nM; for `COc1ccccc1C(=O)n1nc(C2CN(S(=O)(=O)C(C)C)C2)nc1NCc1ccc(Cl)s1` [Entry 46, N-[(5-chlorothiophen-2-yl)methyl]-1-(2-methoxybenzoyl)-3-[1-(propane-2-sulfonyl)azetidin-3-yl]-1H-1,2,4-triazol-5-amine]: no more than 100 nM; for `COc1ccccc1C(=O)n1nc(C2CCN(S(=O)(=O)C(C)C)CC2)nc1NCc1ccc(Cl)s1` [Entry 47, N-[(5-chlorothiophen-2-yl)methyl]-1-(2-methoxybenzoyl)-3-[1-(propane-2-sulfonyl)piperidin-4-yl]-1H-1,2,4-triazol-5-amine]: no more than 100 nM.
Regarding `COc1ccccc1C(=O)n1nc(C2CCN(C(=O)N3CCCC3)CC2)nc1NCc1ccc(Cl)s1` [Entry 48, N-[(5-chlorothiophen-2-yl)methyl]-1-(2-methoxybenzoyl)-3-[1-(pyrrolidine-1-carbonyl)piperidin-4-yl]-1H-1,2,4-triazol-5-amine], the half-inhibitory concentration (IC50) is no more than 100 nM.
On to `COc1ccccc1C(=O)n1nc(C2CN(S(=O)(=O)N3CCCC3)C2)nc1NCc1ccc(Cl)s1` [Entry 49, N-[(5-chlorothiophen-2-yl)methyl]-1-(2-methoxybenzoyl)-3-[1-(pyrrolidine-1-sulfonyl)azetidin-3-yl]-1H-1,2,4-triazol-5-amine], for which the IC50 is no more than 100 nM.
As for `Cc1ccccc1C(=O)n1nc(C2CCOCC2)nc1NCc1ccc(Cl)s1` [Entry 50, N-[(5-chlorothiophen-2-yl)methyl]-1-(2-methylbenzoyl)-3-(oxan-4-yl)-1H-1,2,4-triazol-5-amine], the figure is no more than 100 nM; as for `O=C(c1ccoc1)n1nc(C2CCOCC2)nc1NCc1ccc(Cl)s1` [Entry 51, N-[(5-chlorothiophen-2-yl)methyl]-1-(furan-3-carbonyl)-3-(oxan-4-yl)-1H-1,2,4-triazol-5-amine], no more than 100 nM; as for `O=C(c1ccoc1)n1nc(C2CCCO2)nc1NCc1ccc(Cl)s1` (stereo not shown) [Entry 52, N-[(5-chlorothiophen-2-yl)methyl]-1-(furan-3-carbonyl)-3-(oxolan-2-yl)-1H-1,2,4-triazol-5-amine], no more than 100 nM.
The same measure for `O=C(c1ccoc1)n1nc(C2CCOC2)nc1NCc1ccc(Cl)s1` (stereo not shown) [Entry 53, N-[(5-chlorothiophen-2-yl)methyl]-1-(furan-3-carbonyl)-3-(oxolan-3-yl)-1H-1,2,4-triazol-5-amine]: no more than 100 nM.
Molecule `COc1ccccc1C(=O)n1nc(C2CN(S(C)(=O)=O)C2)nc1NCc1ccc(Cl)s1` [Entry 54, N-[(5-chlorothiophen-2-yl)methyl]-3-(1-methanesulfonylazetidin-3-yl)-1-(2-methoxybenzoyl)-1H-1,2,4-triazol-5-amine] returned a half-maximal inhibitory concentration (IC50) of no more than 100 nM.
As for `COc1ccccc1C(=O)n1nc(C2CCN(S(C)(=O)=O)CC2)nc1NCc1ccc(Cl)s1` [Entry 55, N-[(5-chlorothiophen-2-yl)methyl]-3-(1-methanesulfonylpiperidin-4-yl)-1-(2-methoxybenzoyl)-1H-1,2,4-triazol-5-amine], the 50% inhibitory concentration (IC50) is no more than 100 nM.
